For test [1], the system named is clinical isolates of MRSA (T3, 102, MRSA 99). It is filed as cell-based, Staphylococcus aureus. To be noted: sub-inhibitory sub-culture, 3 week test period.
Description: This experiment was conducted to test for the rapid development of resistance in Staphylococcus aureus in the presence of sub-inhibitory doses of the active extract.
All clinical strains were from The Royal London, St Bartholomew's or Newham hospitals in London. Each strain had been identified as an MRSA.
High concentrations of organisms (10^7cfu/ml^−1) were grown in sub-inhibitory concentrations 0, 2 and 8 mg l^−1 of the active extract.
Organisms were sub-cultured into fresh active extract media at day 4 and again at day 7. MICs were checked weekly using standard methods. Subcultures were carried out in triplicate.
In the next test the test system is Staphylococcus aureus. The note with it: filter paper disc, chemicals isolated from Danshen; cited from earlier work.
For another test, the system named is MRSA 2. Briefly: MIC and MBC by microtitre well methods, PYN6 versus individual compounds (TEST 2). Type of test: cell-based, Staphylococcus aureus. The note with it: for MIC: microtitre well, growth over 20 hrs, 490 nm; for MBC: subculture onto solid media after 20 hrs. As for the experimental part:
(§1) Minimum Inhibitory and Minimum Bactericidal activities (MIC and MBC) of PYN6 were determined for 2 strains of MRSA using standard microtitre well methods. MICs were determined by measuring growth over 20 hrs using spectroscopy at 490 nm. MBCs were determined by subculture from these microtitre plates onto solid media after 20 hrs and determining survival of bacteria grown in the presence of PYN6.
TEST 2 MIC and MBC comparing PYN6 to A, B, C and D against MRSA 2

The test system of the next test is MRSA 98. Put plainly: MIC and MBC by microtitre well methods, PYN6 versus individual compounds (TEST 1). It is filed as cell-based, Staphylococcus aureus. As for the experimental part:
as §1
TEST 1 MIC and MBC comparing PYN6 to A, B, C and D against MRSA 98

A further test deals with Escherichia coli. The note with it: dissolved in dimethylformamide (DMF); cited from earlier work.
A further test concerns Haemolytic streptococcus. The note with it: dissolved in dimethylformamide (DMF); cited from earlier work.
Test [2] deals with Bacillus aeruginosus ATCC227853. To be noted: dissolved in dimethylformamide (DMF); cited from earlier work.
For test [3] the following is noted: dissolved in chloroform; cited from earlier work.
Test [4] relates to Staphylococcus aureus ATCC225923. The note with it: dissolved in dimethylformamide (DMF); cited from earlier work.
The mark [5] stands for this setting: TEST 1, MRSA 98, microtitre well, growth over 20 hrs, 490 nm.
Where [6] appears, read: TEST 1, MRSA 98, subculture onto solid media after 20 hrs.
Where [7] appears, read: Staphylococcus aureus, read-out: MIC.
[8] abbreviates: Staphylococcus aureus, read-out: MBC.
[9] abbreviates: Staphylococcus aureus, MRSA, 20 h.

Consider nine compounds from patent publication US9283256B2, “Antibacterial composition comprising Salvia extracts” (Botanic Century (Beijing) Co. Ltd., priority 2007, dated 2016).

≈ marks a conversion by molar mass, not a printed value. Read-outs that look alike come from different tables or passages of the source.

Regarding Gentamicin, the development of resistance result in test [1] was “no development of resistance”.
On to neotanshinone B, for which, in the test with Staphylococcus aureus, the anti-Staphylococcus aureus activity entry was “did not show activity”.
With `Cc1coc2c1C(=O)C(=O)c1c-2ccc2c(C)cccc12` [A, Tashinone 1], the MIC against MRSA 2 and against MRSA 98 (setting [5]) was 125 µg/mL (≈ 452 µM) in each case. Besides, the MBC is greater than 500 µg/mL against MRSA 2 and less than 500 µg/mL in the test with MRSA 98 (setting [6]). Also, the anti-Staphylococcus aureus activity result with Staphylococcus aureus is recorded as “did not show activity”.
Take `Cc1coc2c1C(=O)C(=O)c1c-2ccc2c1CCCC2(C)C` [B, Tashinone 11A]: the MIC with MRSA 2 (setting [7]) was 125 µg/mL (≈ 425 µM); in the test on Haemolytic streptococcus it was 121.5 µg/mL (≈ 413 µM); in the test on MRSA 98 (Staphylococcus aureus, TEST 1, MRSA 98, microtitre well, growth over 20 hrs, 490 nm, read-out: MIC), 125 µg/mL (≈ 425 µM); in [2], 50 µg/mL (≈ 170 µM); in test [4] it was 100 µg/mL (≈ 340 µM). The minimum bactericidal concentration (MBC) is greater than 500 µg/mL in the test with MRSA 2 (setting [8]) and less than 500 µg/mL in the test with MRSA 98 (Staphylococcus aureus, TEST 1, MRSA 98, subculture onto solid media after 20 hrs, read-out: MBC). In the test with Escherichia coli, the “minimum inhibitory concentration (MIC)” value was 50 µg/mL (≈ 170 µM). Also, the anti-microbial activity result in [3] is recorded as “did not demonstrate any anti-microbial activity”. Also, the anti-Staphylococcus aureus activity result in the test with Staphylococcus aureus was “did not show activity”.
neotanshinone C: in the test with Staphylococcus aureus, the anti-Staphylococcus aureus activity entry was “did not show activity”.
Take `Cc1cccc2c3c(ccc12)C1=C(C(=O)C3=O)[C@@H](C)CO1` [C, Dyhydrotashinone]: the MIC against MRSA 2 is 1.8 µg/mL (≈ 6.47 µM); in the test on MRSA 98 (setting [5]) it was 8 µg/mL (≈ 28.7 µM). Moreover, the values for the MBC with MRSA 2 and in the test with MRSA 98 (setting [6]) were 62 µg/mL (≈ 223 µM) and 125 µg/mL (≈ 449 µM), respectively. Also, the anti-Staphylococcus aureus activity entry with Staphylococcus aureus is “demonstrated anti-Staphylococcus aureus activity”.
With `Cc1coc2c1C(=O)C(=O)c1c-2ccc2c1CCCC2(C)CO` (stereo not drawn) [Tanshinone IIB], the “minimum inhibitory concentration (MIC)” value with Escherichia coli is 25 µg/mL (≈ 80.6 µM). Moreover, the MIC is 25 µg/mL (≈ 80.6 µM) in the test on Haemolytic streptococcus, 25 µg/mL (≈ 80.6 µM) in test [2] and 50 µg/mL (≈ 161 µM) in test [4]. Besides, the anti-Staphylococcus aureus activity entry with Staphylococcus aureus is “demonstrated anti-Staphylococcus aureus activity”.
With `C[C@H]1COC2=C1C(=O)C(=O)c1c2ccc2c1CCCC2(C)C` [D, Cryptotashinone], the MIC in the test on MRSA 2 (setting [7]) is 7.7 µg/mL (≈ 26 µM); with MRSA 98 (setting [9]) it was 15 µg/mL (≈ 50.6 µM). In addition, the MBC in the test on MRSA 2 (setting [8]) came out at 125 µg/mL (≈ 422 µM); against MRSA 98 (setting [9]), 250 µg/mL (≈ 844 µM).
neotanshinone A: in the test with Staphylococcus aureus, the anti-Staphylococcus aureus activity result was “did not show activity”.
